Measurements: ChEMBL document CHEMBL4033668, “Inhibitors of cytochrome P450 (CYP) 1B1” (Eur J Med Chem, 2017)

Assays:
Cytochrome P450 1B1 [1] = target: T1, Cytochrome P450 1B1 (Homo sapiens, UniProt Q16678); experiment: Inhibition of CYP1B1 in TCDD-exposed human MCF-7 cells using ethoxyresorufin as substrate after 20 mins in presence of NADPH by spectrofluorimetric analysis
T1 sequence (Q16678 whole entry): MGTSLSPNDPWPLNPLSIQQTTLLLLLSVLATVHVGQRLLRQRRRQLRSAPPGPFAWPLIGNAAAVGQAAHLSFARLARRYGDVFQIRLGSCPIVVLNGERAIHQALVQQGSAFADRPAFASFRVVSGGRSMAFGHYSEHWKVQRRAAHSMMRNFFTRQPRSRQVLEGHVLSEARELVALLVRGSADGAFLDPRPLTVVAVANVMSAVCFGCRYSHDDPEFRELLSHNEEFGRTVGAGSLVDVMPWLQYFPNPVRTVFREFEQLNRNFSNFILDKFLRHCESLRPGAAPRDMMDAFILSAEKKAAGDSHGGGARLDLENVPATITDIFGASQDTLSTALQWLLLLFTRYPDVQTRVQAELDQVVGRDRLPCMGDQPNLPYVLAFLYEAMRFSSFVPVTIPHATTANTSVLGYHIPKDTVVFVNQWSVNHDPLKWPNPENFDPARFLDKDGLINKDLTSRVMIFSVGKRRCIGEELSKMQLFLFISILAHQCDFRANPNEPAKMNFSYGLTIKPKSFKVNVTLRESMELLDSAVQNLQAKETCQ

[2] = Selectivity ratio of IC50 for CYP1A1 in TCDD-exposed human MCF-7 cells to IC50 for CYP1B1 in TCDD-exposed human MCF-7 cells
Cytochrome P450 1A1 [3] = target: T2, Cytochrome P450 1A1 (Homo sapiens, UniProt P04798); experiment: Inhibition of CYP1A1 in TCDD-exposed human MCF-7 cells using ethoxyresorufin as substrate after 20 mins in presence of NADPH by spectrofluorimetric analysis; format: ADME
T2 sequence (P04798 whole entry): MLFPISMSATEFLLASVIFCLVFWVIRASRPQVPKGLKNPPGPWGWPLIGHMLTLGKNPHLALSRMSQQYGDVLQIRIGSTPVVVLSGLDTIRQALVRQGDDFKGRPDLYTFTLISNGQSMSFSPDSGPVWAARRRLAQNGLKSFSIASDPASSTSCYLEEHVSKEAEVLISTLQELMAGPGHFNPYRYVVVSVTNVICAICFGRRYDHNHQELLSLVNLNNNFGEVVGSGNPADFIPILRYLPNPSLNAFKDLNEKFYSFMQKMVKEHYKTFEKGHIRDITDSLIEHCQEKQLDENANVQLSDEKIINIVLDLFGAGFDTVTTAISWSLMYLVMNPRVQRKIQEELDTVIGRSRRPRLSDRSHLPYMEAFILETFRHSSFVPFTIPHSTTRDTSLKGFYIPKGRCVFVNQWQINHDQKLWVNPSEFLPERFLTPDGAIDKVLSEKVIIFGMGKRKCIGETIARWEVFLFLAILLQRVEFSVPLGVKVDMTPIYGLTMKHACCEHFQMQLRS

Cytochrome P450 1B1 [4] = target: T1, Cytochrome P450 1B1; experiment: Inhibition of CYP1B1 in TCDD-exposed human MCF-7 cells using ethoxyresorufin as substrate after 20 mins in presence of NADPH by Lineweaver-Burk linear regression plot analysis
Cytochrome P450 1A2 [5] = target: T3, Cytochrome P450 1A2 (Homo sapiens, UniProt P05177); experiment: Inhibition of recombinant human CYP1A2 expressed in Escherichia coli DH5alpha using ethoxyresorufin as substrate preincubated for 3 mins followed by NADPH addition measured after 10 mins by spectrofluorometric assay; format: ADME
T3 sequence (P05177 whole entry): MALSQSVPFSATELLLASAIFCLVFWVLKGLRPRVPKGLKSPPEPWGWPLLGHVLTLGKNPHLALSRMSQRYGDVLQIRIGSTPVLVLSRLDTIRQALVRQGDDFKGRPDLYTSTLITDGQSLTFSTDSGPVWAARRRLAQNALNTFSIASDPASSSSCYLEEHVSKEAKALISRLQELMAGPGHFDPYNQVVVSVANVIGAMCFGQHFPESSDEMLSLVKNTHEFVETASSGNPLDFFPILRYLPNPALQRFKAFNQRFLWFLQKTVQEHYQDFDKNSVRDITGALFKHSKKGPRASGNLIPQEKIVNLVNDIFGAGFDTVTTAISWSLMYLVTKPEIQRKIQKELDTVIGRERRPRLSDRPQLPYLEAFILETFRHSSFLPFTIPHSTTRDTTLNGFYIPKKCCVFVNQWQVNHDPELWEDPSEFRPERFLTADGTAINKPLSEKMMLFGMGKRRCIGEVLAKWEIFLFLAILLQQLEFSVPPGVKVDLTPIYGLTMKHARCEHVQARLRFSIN

Cytochrome P450 1A1 [6] = target: T2, Cytochrome P450 1A1; experiment: Mixed type inhibition of human hepatic microsomes CYP1A1 expressed in supersomes coexpressing NADPH-cytochrome P450 reductase using 7-Ethoxyresorufin as substrate measured every 30 secs for 3 mins in presence of NADPH by spectrofluorometric analysis; format: ADME
Cytochrome P450 1B1 [7] = target: T1, Cytochrome P450 1B1; experiment: Mixed type inhibition of human hepatic microsomes CYP1B1 expressed in supersomes coexpressing NADPH-cytochrome P450 reductase using 7-Ethoxyresorufin as substrate measured every 30 secs for 3 mins in presence of NADPH by spectrofluorometric analysis
Cytochrome P450 1B1 [8] = target: T1, Cytochrome P450 1B1; experiment: Inhibition of recombinant human CYP1B1 expressed in supersomes using ethoxyresorufin as substrate after 20 mins in presence of NADPH by fluorescence assay
[9] = Competitive inhibition of […] CYP1 expressed in supersomes coexpressing NADPH-CYP reductase using 7-Ethoxyresorufin as substrate measured every 5 mins for 30 mins in presence of NADPH by fluorescence assay; format: ADME
Cytochrome P450 1A2 [10] = target: T3, Cytochrome P450 1A2; experiment: Competitive inhibition of […] CYP1A2 expressed in supersomes coexpressing NADPH-CYP reductase using 7-Ethoxyresorufin as substrate measured every 5 mins for 30 mins in presence of NADPH by fluorescence assay; format: ADME
Cytochrome P450 1B1 [11] = target: T1, Cytochrome P450 1B1; experiment: Competitive inhibition of […] CYP1B1 expressed in supersomes coexpressing NADPH-CYP reductase using 7-Ethoxyresorufin as substrate measured every 5 mins for 30 mins in presence of NADPH by fluorescence assay
Cytochrome P450 1A1 [12] = target: T2, Cytochrome P450 1A1; experiment: Competitive inhibition of […] CYP1A1 expressed in supersomes coexpressing NADPH-CYP reductase using 7-Ethoxyresorufin as substrate measured every 5 mins for 30 mins in presence of NADPH by fluorescence assay; format: ADME; details: read-out: Ki

With `Br.Cc1ccc(C(=O)Cn2c3c(sc2=N)CCCC3)cc1` the IC50 (Cytochrome P450 1B1 [1]) was 20.6 nM, the “Ratio IC50” value [2] was 73 and the IC50 (Cytochrome P450 1A1 [3]) was 1500 nM. The Ki (Cytochrome P450 1B1 [4]) was 4.38 nM.

In the case of `COc1cc(/C=C/c2ccc(OC)cc2OC)cc(OC)c1`, the IC50 (Cytochrome P450 1A2 [5]) is reported as 3000 nM.

`COc1ccc2[nH]cc(CCNC(C)=O)c2c1` [MELATONIN] gave a Ki (Cytochrome P450 1A1 [6]) of 59000 nM and a Ki (Cytochrome P450 1B1 [7]) of 14000 nM.

With `C=C(C)C1CC=C(CO)CC1` (configuration not stated) the Ki (Cytochrome P450 1B1 [8]) was 2000 nM.

`CCCCCc1cc(O)c2c(c1)OC(C)(C)[C@@H]1CCC(C)=C[C@@H]21` [DRONABINOL] gave a Ki [9] of 2470 to 7540 nM.

In the case of `CCCCCc1cc(O)c2c(c1)OC(C)(C)c1ccc(C)cc1-2` [CANNABINOL], the Ki (Cytochrome P450 1A2 [10]) is reported as 79 nM, the Ki (Cytochrome P450 1B1 [11]) is reported as 148 nM and the Ki (Cytochrome P450 1A1 [12]) is reported as 541 nM.
